Assay results taken from US20180008637A1, “NATURAL KILLER CELLS AND USES THEREOF” (ANTHROGENESIS CORPORATION, priority 2014, published 2018).

Test system: CD34+ cells
Experiment: Three-stage method with SR-1 or CH223191 in Stage 1 and Stage 2 media: NK cell expansion, purity, cytotoxicity
Format: cell-based
Conditions: for effects on fold expansion, cell purity (CD56+CD3−), and cytotoxicity of K562 cells at a 10:1 (E:T) ratio: SR-1 and CH223191 compared at 10 μM and 1 μM
Description: CD34^+ cells are cultured in the following medium formulations for the indicated number of days, and aliquots of cells are taken for assessment of cell count, cell viability, characterization of natural killer cell differentiation and functional evaluation.
Stage 1 medium: 90% Stem Cell Growth Medium (SCGM) (CellGro®), 10% Human Serum-AB, supplemented with 4.5 U/mL low molecular weight heparin (LMWH), 25 ng/mL recombinant human thrombopoietin (TPO), 25 ng/mL recombinant human Flt3L, 27 ng/mL recombinant human stem cell factor (SCF), 25 ng/mL recombinant human IL-7, 0.05 ng/mL recombinant human IL-6 (500-fold), 0.25 ng/mL recombinant human granulocyte colony-stimulating factor (G-CSF) (50-fold), 0.01 ng/mL recombinant human granulocyte-macrophage colony-stimulating factor (GM-CSF) (500-fold), 0.10% gentamicin, and 1 to 10 μm StemRegenin-1 (SR-1).
Stage 2 medium: 90% SCGM, 10% Human Serum-AB, supplemented with 4.5 U/mL low molecular weight heparin (LMWH), 25 ng/mL recombinant human Flt3L, 27 ng/mL recombinant human SCF, 25 ng/mL recombinant human IL-7, 20 ng/mL recombinant human IL-15, 0.05 ng/mL recombinant human IL-6 (500-fold), 0.25 ng/mL recombinant human G-CSF (50-fold), 0.01 ng/mL recombinant human GM-CSF (500-fold), 0.10% gentamicin, and 1 to 10 μm SR1.
Stemregenin-1 (SR-1) was evaluated as a component of Stage 1 and Stage 2 media using the three-stage method outlined in Example 1, above, at concentrations of 1 μM, 10 μM, and 30 μM. The same concentrations of CH223191 in the three-stage method were also evaluated.

Question: Cc1ccccc1/N=N/c1ccc(NC(=O)c2ccnn2C)c(C)c1 [CH223191, 1-methyl-N-(2-methyl-4-(2-(2-methylphenyl)diazenyl)phenyl)-1H-pyrazole-5-carboxamide] was tested. Which “effects on fold expansion, cell purity (CD56+CD3−), and cytotoxicity of K562 cells at a 10:1 (E:T) ratio” value did it give?
Answer: Comparable effects

Question: Which “effects on fold expansion, cell purity (CD56+CD3−), and cytotoxicity of K562 cells at a 10:1 (E:T) ratio” value does the source give for CC(C)n1cnc2c(NCCc3ccc(O)cc3)nc(-c3csc4ccccc34)nc21 [SR-1, 4-(2-(2-(benzo[b]thien-3-yl)-9-isopropyl-9H-purin-6-ylamino)ethyl)phenol] here?
Answer: Comparable effects

Question: What about the “cytotoxicity of the NK cells produced” value (SR-1 at 10 μM versus 1 μM and 30 μM in Stage 1 and Stage 2 media) of the same compound?
Answer: higher cytotoxicity than the other two concentrations tested
